What is called MIC90 is an inhibitory concentration at the 90% level, which refers to growth in some studies and to a panel of isolates in others. A higher MIC90 goes with lower susceptibility.

Converted amounts (≈) assume the structure as drawn.

The subject of assay [1] is C. albicans, Fluconazole, Voriconazole, Itraconazole and/or Caspofungin resistant isolates. The experiment in a line: Susceptibility of resistant clinical isolates (MIC, broth dilution). The assay is classed as cell-based. As to conditions: for MIC90: Candida albicans.
Assay [2] concerns C. glabrata, Fluconazole, Voriconazole, Itraconazole and/or Caspofungin resistant isolates. Described as above. Particulars: for MIC90: Nakaseomyces glabratus. The assay is classed as cell-based. The method, then:
The efficacy of compound IV″ was investigated on 563 clinical isolates of 33 human fungal pathogens. […] For species with n≧10, the MIC90 (MIC, minimal inhibitory concentration) is given as ng/ml. For species with n≦10, the MIC range is given as ng/ml. 24 h and 48 h reads are indicated (Table 1).
The MIC90 was calculated for the indicated species.

With `O=C([O-])CCCCCCC/C=C\C#CC#Cc1ccco1.[K+]` [Compound IV″, potassium (Z)-14-(furan-2-yl)tetradeca-9-en-11,13-diynoate], the results for the MIC90 in assay [1] and in assay [2] were 0.0025 µg/mL and 0.02 µg/mL, respectively. Also, the “MIC90/MIC range 48 h” value in assay [1] (resistant C. albicans isolates (n = 20), MIC90, 48 h) was 0.0025 µg/mL; in assay [2] (resistant C. glabrata isolates (n = 21), MIC90, 48 h) it was 0.02 µg/mL.
`C[C@@H](c1ncncc1F)[C@](O)(Cn1cncn1)c1ccc(F)cc1F` [Voriconazole]: the MIC90 was above 0.5 µg/mL in assay [1] and 0.5 µg/mL (≈ 1.43 µM) in assay [2].

The record behind these values is patent US8722910B2, “Diyne compositions” (Evolva AG, priority 2009, dated 2014).
